# Data published in patent US9777020B2, “Furo-3-carboxamide derivatives and methods of use” (AbbVie Inc., priority 2014, dated 2017).
# Molecular target: TrkA (Homo sapiens (Human), UniProt P04629)
# Assay: TrkA kinase HTRF enzyme inhibition assay
# Assay type: biochemical
# Details: TrkA pre-incubated with 200 μM ATP
# Method in brief: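 HTRF ratio read-out of biotin-peptide (125 nM) phosphorylation, 1 h reaction after TrkA (2-10 nM) auto-activation with ATP (200 μM) for 20 min and 10 min compound pre-incubation in 50 mM HEPES pH 7.4 with MgCl2/MnCl2. Percent inhibition from initial rates in duplicate, fitted to single-site equation for IC50.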
# Sequence of TrkA (P04629 33-796): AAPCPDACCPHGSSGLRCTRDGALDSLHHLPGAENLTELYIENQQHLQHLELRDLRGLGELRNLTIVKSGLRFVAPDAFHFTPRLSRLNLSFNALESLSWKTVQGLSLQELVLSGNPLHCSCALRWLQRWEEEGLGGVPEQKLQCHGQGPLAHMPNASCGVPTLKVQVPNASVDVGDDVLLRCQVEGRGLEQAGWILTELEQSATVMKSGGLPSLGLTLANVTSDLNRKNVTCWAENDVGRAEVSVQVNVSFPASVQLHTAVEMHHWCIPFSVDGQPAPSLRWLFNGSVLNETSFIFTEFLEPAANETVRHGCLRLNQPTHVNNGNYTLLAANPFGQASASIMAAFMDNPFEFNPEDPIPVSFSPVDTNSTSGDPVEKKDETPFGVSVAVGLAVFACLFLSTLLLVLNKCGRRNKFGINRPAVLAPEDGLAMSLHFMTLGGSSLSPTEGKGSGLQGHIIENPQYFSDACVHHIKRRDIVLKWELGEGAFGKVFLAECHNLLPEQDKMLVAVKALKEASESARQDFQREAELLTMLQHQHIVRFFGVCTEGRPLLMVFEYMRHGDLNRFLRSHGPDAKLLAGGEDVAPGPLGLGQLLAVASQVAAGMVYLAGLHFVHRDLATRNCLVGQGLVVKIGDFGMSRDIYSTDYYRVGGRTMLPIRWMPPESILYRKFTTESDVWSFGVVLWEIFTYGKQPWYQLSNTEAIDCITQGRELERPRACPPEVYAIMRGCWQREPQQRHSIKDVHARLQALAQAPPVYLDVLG
row,SMILES,IC50 [nM]
1,"CCOc1nc(N2CCN(C(C)=O)CC2)ccc1NC(=O)c1coc2c1C(=O)N(CCOC)CC2 [Example 84, N-[6-(4-acetylpiperazin-1-yl)-2-ethoxypyridin-3-yl]-5-(2-methoxyethyl)-4-oxo-4,5,6,7-tetrahydrofuro[3,2-c]pyridine-3-carboxamide]",5.3
2,"COCCOc1nc(N2CCN(C(C)=O)CC2)ccc1NC(=O)c1coc2c1C(=O)N(CCOCc1ccccc1)CC2 [Example 85, N-[6-(4-acetylpiperazin-1-yl)-2-(2-methoxyethoxyl)pyridin-3-yl]-5-[2-(benzyloxy)ethyl]-4-oxo-4,5,6,7-tetrahydrofuro[3,2-c]pyridine-3-carboxamide]",266
3,"CC(=O)N1CCN(c2ccc(NC(=O)c3coc4c3C(=O)N(CCOCc3ccccc3)CC4)c(OCCOCc3ccccc3)n2)CC1 [Example 86, N-{6-(4-acetylpiperazin-1-yl)-2-[2-(benzyloxy)ethoxy]pyridin-3-yl}-5-[2-(benzyloxy)ethyl]-4-oxo-4,5,6,7-tetrahydrofuro[3,2-c]pyridine-3-carboxamide]",1320
4,"COCCOc1nc(N2CCN(C(C)=O)CC2)ccc1NC(=O)c1coc2c1C(=O)N(CCO)CC2 [Example 87, N-[6-(4-acetylpiperazin-1-yl)-2-(2-methoxyethoxyl)pyridin-3-yl]-5-(2-hydroxyethyl)-4-oxo-4,5,6,7-tetrahydrofuro[3,2-c]pyridine-3-carboxamide]",224
5,"CC(=O)N1CCN(c2ccc(NC(=O)c3coc4c3C(=O)N(CCO)CC4)c(OCCO)n2)CC1 [Example 88, N-[6-(4-acetylpiperazin-1-yl)-2-(2-hydroxyethoxyl)pyridin-3-yl]-5-(2-hydroxyethyl)-4-oxo-4,5,6,7-tetrahydrofuro[3,2-c]pyridine-3-carboxamide]",95
6,"CCOc1nc(N2CCN(C(C)=O)CC2)ccc1NC(=O)c1coc2c1C(=O)N(CCCO)CC2 [Example 89, N-[6-(4-acetylpiperazin-1-yl)-2-ethoxypyridin-3-yl]-5-(3-hydroxypropyl)-4-oxo-4,5,6,7-tetrahydrofuro[3,2-c]pyridine-3-carboxamide]",4.7

# The next lines start with the values.
row,IC50 [nM],SMILES
1,4.7,"CCOc1nc(N2CCN(C(C)=O)CC2)ccc1NC(=O)c1coc2c1C(=O)N(CCCCO)CC2 [Example 90, N-[6-(4-acetylpiperazin-1-yl)-2-ethoxypyridin-3-yl]-5-(4-hydroxybutyl)-4-oxo-4,5,6,7-tetrahydrofuro[3,2-c]pyridine-3-carboxamide]"
2,7,"CCOc1nc(N2CCN(C(C)=O)CC2)ccc1NC(=O)c1coc2c1C(=O)N(CCOCCO)CC2 [Example 91, N-[6-(4-acetylpiperazin-1-yl)-2-ethoxypyridin-3-yl]-5-[2-(2-hydroxyethoxyl)ethyl]-4-oxo-4,5,6,7-tetrahydrofuro[3,2-c]pyridine-3-carboxamide]"
3,18.2,"CCOc1nc(N2CCN(C(=O)OC(C)(C)C)CC2)ccc1NC(=O)c1coc2c1C(=O)NCC2 [Example 92, tert-butyl 4-(6-ethoxy-5-{[(4-oxo-4,5,6,7-tetrahydrofuro[3,2-c]pyridin-3-yl)carbonyl]amino}pyridin-2-yl)piperazine-1-carboxylate]"
4,16.3,"CCOc1nc(N2CCN(C(=NC#N)NC)CC2)ccc1NC(=O)c1coc2c1C(=O)NCC2 [Example 93, N-{6-[4-(N′-cyano-N-methylcarbamimidoyl)piperazin-1-yl]-2-ethoxypyridin-3-yl}-4-oxo-4,5,6,7-tetrahydrofuro[3,2-c]pyridine-3-carboxamide]"
5,1.5,"CCOc1nc(N2CCN(C(C)=O)CC2)ccc1NC(=O)c1coc2c1C(=O)N(C[C@@H](C)OC(C)=O)CC2 [Example 94, (2R)-1-[3-{[6-(4-acetylpiperazin-1-yl)-2-ethoxypyridin-3-yl]carbamoyl}-4-oxo-6,7-dihydrofuro[3,2-c]pyridin-5(4H)-yl]propan-2-yl acetate]"
